Reference: patent publication US6579967B1, “Receptor-selective somatostatin analogs” (The Salk Institute for Biological Studies, priority 1999, dated 2003)
Entries after “also recorded” stand apart in the source; their conditions may differ. Blank lines part the entries; values can stand above or below the compound they belong to.

Assays:
Type in all cases: binding
human SSTR3 = molecular target: T1, human SSTR3 (Homo sapiens, UniProt P32745); experiment: Displacement of 125I-[Leu8,D-Trp22,Tyr25]-somatostatin-28 from cloned SSTR3 (receptor autoradiography on membrane pellets); details: for binding strength and selectivity for SSTR3, in words: qualitative statement
T1 construct: expressed in transfected cells; host or cells: CHO-K1 cells and CCL39 cells
T1 sequence (P32745 whole entry): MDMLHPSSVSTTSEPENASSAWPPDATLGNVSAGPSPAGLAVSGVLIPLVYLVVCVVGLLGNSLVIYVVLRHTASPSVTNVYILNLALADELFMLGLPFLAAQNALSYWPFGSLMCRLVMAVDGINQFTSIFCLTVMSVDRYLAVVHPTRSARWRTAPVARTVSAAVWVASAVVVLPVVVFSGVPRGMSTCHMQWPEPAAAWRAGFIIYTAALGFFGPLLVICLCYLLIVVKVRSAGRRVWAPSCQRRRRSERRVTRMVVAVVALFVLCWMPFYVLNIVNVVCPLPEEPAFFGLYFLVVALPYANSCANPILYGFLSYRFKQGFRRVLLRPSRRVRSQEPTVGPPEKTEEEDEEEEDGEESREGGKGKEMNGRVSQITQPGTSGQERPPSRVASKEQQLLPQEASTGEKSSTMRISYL
Description: (§1) Generally, recombinant cells expressing the receptor are washed and homogenized to prepare a crude protein homogenate in a suitable buffer, as known in the art. In a typical assay, an amount of protein from the cell homogenate is placed into a small volume of an appropriate assay buffer at an appropriate pH. Candidate substances, such as potential SRIF agonists and antagonists, are added to the admixture in convenient concentrations, and the interaction between the candidate substance and the receptor polypeptide is monitored.
(§2) Receptor binding assays are performed on cloned SRIF receptors as generally set forth in Raynor et al. supra. Using such assays, one can generate KD values which are indicative of the concentration of a ligand necessary to occupy one-half (50%) of the binding sites on a selected amount of a receptor or the like, or alternatively, competitive assays can generate IC50 values which are indicative of the concentration of a competitive ligand necessary to displace a saturation concentration of a target ligand being measured from 50% of binding sites. The peptide des-AA^1,2,4,5,12,13-[D-Agl^8(Me,2-naphthoyl)]SRIF inhibits the binding to SSTR3 of an iodinated SRIF-28 ligand that has strong affinity for all five receptors.
(§3) In vitro Bioassay: The various somatostatin analogs are tested in vitro for their ability to bind to isolated cloned receptors expressed on CHO-K1 cells and CCL39 cells. CHO-K1 cells are grown in Ham's F-12 medium, and CCL39 cells are grown in Dulbecco's modified Eagle's medium/Ham's F-12(1:1) mix, supplemented with 10% fetal bovine serum, 100 U/ml penicillin and 100 μg/ml streptomycin, in humidified air containing 5% CO2 at 37° C.
(§4) Cells are washed twice with and scraped into ice-cold 0.05 M Tris-HCl (pH 7.4), collected by centrifugation, and homogenized using a rotor/stator slash system in the same buffer. After centrifugation at 120 g for 5 min. at 4° C., the supernatant is collected and centrifuged again at 48,000 g for 30 min. at 4° C. The resulting pellet is resuspended in ice-cold Tris buffer, transferred into a microfuge tube, and centrifuged at 20,000 g for 15 min. at 4° C. After withdrawal of the supernatant, the membrane pellet is stored at −80° C.
(§5) Receptor autoradiography is performed on 20 μm thick cryostat sections of the membrane pellets, mounted on microscope slides, and then stored at −20° C. For each of the tested compounds, complete displacement experiments are performed with the universal somatostatin ligand radioligand ^125I-[Leu^8,D-Trp^22,Tyr^25]-somatostatin-28 that binds with strong affinity to all five receptors. Increasing concentrations of the unlabeled peptide are used ranging from 0.1-1000 nM. Unlabeled somatostatin-28 is run in parallel using the same increasing concentrations, as a control. IC50 values are calculated after quantification of the data using a computer-assisted image processing system as known in this art.
(§6) The potencies of certain SRIF analogs to inhibit radioligand binding of ^125I-[Leu^8,D-Trp^22,[…]]SRIF-28 to the various cloned SRIF receptors are shown in the following table wherein the IC50 values are given in nanomolar concentration.

human SSTR2 = molecular target: T2, human SSTR2 (Homo sapiens, UniProt P30874); experiment: Displacement of 125I-[Leu8,D-Trp22,Tyr25]-somatostatin-28 from cloned SSTR2 (receptor autoradiography on membrane pellets); details: inhibition of 125I-[Leu8,D-Trp22,Tyr24]SRIF-28 binding, cloned receptor; read-out: IC50 (nM) mSSTR2
T2 construct: expressed in transfected cells; host or cells: CHO-K1 cells and CCL39 cells
T2 sequence (P30874 whole entry): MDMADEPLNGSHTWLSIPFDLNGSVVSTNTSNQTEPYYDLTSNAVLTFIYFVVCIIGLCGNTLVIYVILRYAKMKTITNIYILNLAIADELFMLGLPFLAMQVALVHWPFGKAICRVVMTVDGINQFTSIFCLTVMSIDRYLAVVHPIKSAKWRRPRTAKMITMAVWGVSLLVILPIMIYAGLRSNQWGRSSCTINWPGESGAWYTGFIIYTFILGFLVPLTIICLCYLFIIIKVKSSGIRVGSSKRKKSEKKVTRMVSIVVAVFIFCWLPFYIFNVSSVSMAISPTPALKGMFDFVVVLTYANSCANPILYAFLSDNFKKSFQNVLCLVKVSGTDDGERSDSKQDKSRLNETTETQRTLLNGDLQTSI
Description: as §1
as §2, with “sites.” for “sites. The peptide des-AA^1,2,4,5,12,13-[D-Agl^8(Me,2-naphthoyl)]SRIF inhibits the binding to SSTR3 of an iodinated SRIF-28 ligand that has strong affinity for all five receptors.”
as §3, §4
(§7) Receptor autoradiography is performed on 20 μm thick cryostat sections of the membrane pellets, mounted on microscope slides, and then stored at −20° C. […] […] Unlabeled somatostatin-28 is run in parallel using the same increasing concentrations, as a control. IC50 values are calculated after quantification of the data using a computer-assisted image processing system as known in this art.

human SSTR5 = molecular target: T3, human SSTR5 (Homo sapiens, UniProt P35346); experiment: Displacement of 125I-[Leu8,D-Trp22,Tyr25]-somatostatin-28 from cloned SSTR5 (receptor autoradiography on membrane pellets); details: inhibition of 125I-[Leu8,D-Trp22,Tyr24]SRIF-28 binding, cloned receptor; read-out: IC50 (nM) mSSTR5
T3 construct: expressed in transfected cells; host or cells: CHO-K1 cells and CCL39 cells
T3 sequence (P35346 whole entry): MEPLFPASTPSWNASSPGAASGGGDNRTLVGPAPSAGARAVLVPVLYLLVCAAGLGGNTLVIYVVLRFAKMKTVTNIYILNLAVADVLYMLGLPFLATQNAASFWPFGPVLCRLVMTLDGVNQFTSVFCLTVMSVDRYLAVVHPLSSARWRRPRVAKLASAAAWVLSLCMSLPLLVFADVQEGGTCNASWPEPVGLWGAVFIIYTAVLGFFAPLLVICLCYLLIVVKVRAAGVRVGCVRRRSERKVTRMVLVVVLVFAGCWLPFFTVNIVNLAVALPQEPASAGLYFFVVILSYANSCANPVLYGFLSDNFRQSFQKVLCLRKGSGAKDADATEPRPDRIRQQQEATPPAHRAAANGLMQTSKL
Description: as §1, §2, §3, §4
as §5, with “Increasing concentrations of the unlabeled peptide are used ranging from 0.1-1000 nM.” left out
as §6

human SSTR4 = molecular target: T4, human SSTR4 (Homo sapiens, UniProt P31391); experiment: Displacement of 125I-[Leu8,D-Trp22,Tyr25]-somatostatin-28 from cloned SSTR4 (receptor autoradiography on membrane pellets); details: inhibition of 125I-[Leu8,D-Trp22,Tyr24]SRIF-28 binding, cloned receptor; read-out: IC50 (nM) mSSTR4
T4 construct: expressed in transfected cells; host or cells: CHO-K1 cells and CCL39 cells
T4 sequence (P31391 whole entry): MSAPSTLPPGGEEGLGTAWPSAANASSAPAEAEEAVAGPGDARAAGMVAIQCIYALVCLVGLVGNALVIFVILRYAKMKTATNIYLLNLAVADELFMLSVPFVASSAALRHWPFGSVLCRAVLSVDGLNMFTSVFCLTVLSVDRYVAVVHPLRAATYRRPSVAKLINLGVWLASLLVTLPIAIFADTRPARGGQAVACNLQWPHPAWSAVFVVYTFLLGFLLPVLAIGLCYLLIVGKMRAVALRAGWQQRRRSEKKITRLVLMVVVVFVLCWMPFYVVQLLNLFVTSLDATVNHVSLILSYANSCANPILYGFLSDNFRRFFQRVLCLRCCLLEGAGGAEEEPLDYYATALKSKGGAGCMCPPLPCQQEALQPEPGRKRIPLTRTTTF
Description: as §1
as §2, with “sites.” for “sites. The peptide des-AA^1,2,4,5,12,13-[D-Agl^8(Me,2-naphthoyl)]SRIF inhibits the binding to SSTR3 of an iodinated SRIF-28 ligand that has strong affinity for all five receptors.”
as §3, §4, §7

human SSTR1 = molecular target: T5, human SSTR1 (Homo sapiens, UniProt P30872); experiment: Displacement of 125I-[Leu8,D-Trp22,Tyr25]-somatostatin-28 from cloned SSTR1 (receptor autoradiography on membrane pellets); details: inhibition of 125I-[Leu8,D-Trp22,Tyr24]SRIF-28 binding, cloned receptor; read-out: IC50 (nM) mSSTR1
T5 construct: expressed in transfected cells; host or cells: CHO-K1 cells and CCL39 cells
T5 sequence (P30872 whole entry): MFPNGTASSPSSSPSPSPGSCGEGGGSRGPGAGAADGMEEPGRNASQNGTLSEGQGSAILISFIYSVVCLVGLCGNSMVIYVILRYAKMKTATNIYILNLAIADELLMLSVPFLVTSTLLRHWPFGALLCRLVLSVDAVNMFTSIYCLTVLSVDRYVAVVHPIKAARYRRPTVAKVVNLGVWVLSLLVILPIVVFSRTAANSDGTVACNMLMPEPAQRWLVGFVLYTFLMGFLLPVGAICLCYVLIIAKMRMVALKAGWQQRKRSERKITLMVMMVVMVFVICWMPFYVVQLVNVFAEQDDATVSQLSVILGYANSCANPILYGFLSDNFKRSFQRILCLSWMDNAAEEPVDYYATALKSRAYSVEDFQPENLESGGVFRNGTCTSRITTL
Description: as §1
as §2, with “sites.” for “sites. The peptide des-AA^1,2,4,5,12,13-[D-Agl^8(Me,2-naphthoyl)]SRIF inhibits the binding to SSTR3 of an iodinated SRIF-28 ligand that has strong affinity for all five receptors.”
as §3, §4, §7

Compound: (cyclo 3-14)Cbm-D-Cys-Phe-Tyr-D-Agl(Me,2Np)-Lys-Thr-Aph(Cbm)-Cys-OH [Peptide No. 2N]
binding strength and selectivity for SSTR3, in words (human SSTR3): bind strongly and selectively to SSTR3

Compound: C[C@@H](O)[C@@H]1NC(=O)[C@H](CCCCN)NC(=O)[C@@H](N(C)C(=O)c2ccc3ccccc3c2)NC(=O)[C@H](Cc2ccc(Cl)cc2)NC(=O)[C@H](Cc2ccccc2)NC(=O)[C@H](N)CSSC[C@@H](C(=O)O)NC(=O)[C@H](Cc2ccccc2)NC1=O [Peptide No. 2E, (cyclo 3-14)H-D-Cys-Phe-4ClPhe-D-Agl(Me,2Np)-Lys-Thr-Phe-Cys-OH]
IC50 (human SSTR2): > 1000 nM
IC50 (human SSTR3; inhibition of 125I-[Leu8,D-Trp22,Tyr24]SRIF-28 binding, cloned receptor, read-out: IC50 (nM) mSSTR3): 180 nM
binding strength and selectivity for SSTR3, in words (human SSTR3; listed as Peptide 2E): bind strongly and selectively to SSTR3; also recorded: slightly less selective
IC50 (human SSTR5): > 1000 nM
IC50 (human SSTR4): > 10000 nM
IC50 (human SSTR1): > 1000 nM

Compound: (cyclo 3-14)Cbm-D-Cys-Phe-Tyr-D-Agl(Me,2Np)-Lys-Thr-Aph-Cys-OH [Peptide No. 2L]
binding strength and selectivity for SSTR3, in words (human SSTR3): bind strongly and selectively to SSTR3

Further lines, results first:

binding strength and selectivity for SSTR3, in words (human SSTR3): bind selectively to SSTR3
Compound: (cyclo 3-14)H-D-Cys-Phe-Agl(NMe,Bz)-D-2Nal-Lys-Thr-Phe-Cys-OH [Peptide No. 3A]

binding strength and selectivity for SSTR3, in words (human SSTR3): bind selectively to human SSTR3
Compound: (cyclo 3-14)Cbm-D-Cys-Phe-Agl(NMe,Bz)-D-2Nal-Lys-Thr-Phe-Cys-OH [Peptide No. 3C]

binding strength and selectivity for SSTR3, in words (human SSTR3): bind selectively to human SSTR3
Compound: (cyclo 3-14)H-Cys-Phe-Agl(Me,Bz)-D-1Nal-Lys-Thr-Phe-Cys-OH [Peptide No. 3B]
